Laboratory results as given in PubChem BioAssay AID492982 (Sanford-Burnham Center for Chemical Genomics, 2010).
Calls of active or inactive are those of the source.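 Rule for the calls: active = mean EC50 below 10 µM; inactive = the rest.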

Biological target: Type-1 angiotensin II receptor (Homo sapiens) (UniProt P30556)
Test: AT1 receptor agonists, beta-arrestin recruitment, SAR follow-up, selectivity assay for APJ agonist project, cell-based, CHO-K1 PathHunter, luminescence, set 3 (AID 492982)
Details: CHO-K1 AGTR1 PathHunter beta-arrestin, 90 min

Sequence of Type-1 angiotensin II receptor (Homo sapiens) (P30556 whole entry, looked up): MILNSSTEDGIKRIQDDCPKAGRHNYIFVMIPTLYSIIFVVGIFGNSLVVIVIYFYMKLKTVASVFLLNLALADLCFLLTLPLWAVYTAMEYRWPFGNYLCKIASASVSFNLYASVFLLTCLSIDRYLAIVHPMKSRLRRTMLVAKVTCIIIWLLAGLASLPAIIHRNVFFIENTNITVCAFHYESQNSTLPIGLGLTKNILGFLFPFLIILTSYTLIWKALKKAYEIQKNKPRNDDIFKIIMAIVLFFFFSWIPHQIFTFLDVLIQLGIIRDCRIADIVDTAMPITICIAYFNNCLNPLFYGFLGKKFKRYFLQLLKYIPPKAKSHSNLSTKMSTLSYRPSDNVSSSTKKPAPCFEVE

EC50, inactive:
CC1=CC(=O)C(C(C)C)=C/C1=N/OS(=O)(=O)c1ccc(C#N)cc1 > 79 µM
CC1=CC(=O)C(C(C)C)=C/C1=N/OS(=O)(=O)c1ccc(F)cc1 > 79 µM
CC1=CC(=O)C(C(C)C)=C/C1=N/OS(=O)(=O)c1ccc(C(C)C)cc1 > 79 µM
